This passage reports minimal effective concentration results from patent US20260317340A1, “COMPOUNDS, COMPOSITIONS, AND METHODS OF TREATING DISORDERS” (Chengdu Anticancer Bioscience, Ltd., priority 2023, published 2026).

Read-outs that look alike come from different tables or passages of the source.

One assay deals with RPE-Neo or RPE-MYC cells. Put plainly: MTT assay of cellular proliferation (proliferative arrest). Type of assay: cell-based. To be noted: read-out: Min. Effective conc. for Proliferative arrest (>50%). The method, then:
(§1) Human cancer cell lines were obtained from ATCC and cultured in DMEM (Gibco, Cleveland, TN, USA) supplemented with 5% fetal bovine serum (Gibco), penicillin (100 U/mL)-streptomycin (100 μg/mL) (Gibco, Cat. No. 15140-122), 2 mM L-glutamine (Gibco, 200 mM solution, Cat. No. 25030081), and 1 mM sodium pyruvate (Gibco, 100 mM solution, Cat. No. 11360070) at 37° C. in a humidified incubator that was maintained at 5% CO2.
Screening was conducted as described before (Li et al. 2019). Briefly, RPE-Neo or RPE-MYC or RPE-MYC expressing an EGFP-Histone 2B fusion protein were passaged as batches of 96-well plates, 18-24 hours before exposure to the chemical compounds of the present disclosure at concentrations from 20 nM to 20 μM. At 24, 48 or 72 hours after initiation of treatment, cells were analyzed for either an arrest in mitosis or a change in DNA content by GE IN-Cell Analyzer 2000. MTT assays of cellular proliferation were performed as previously described (Li et al. 2019). […]
(§2) As set forth in table 2 below, an values of greater than or equal to 1 nM and less than or equal to 1.0 μM is marked “A”; a value greater than 1.00 μM and less than or equal to 10.0 μM is marked “B”; a value greater than 10.0 μM and less than or equal to 30.0 μM is marked “C”; and a value greater than 30.0 μM and less than 1000 μM is marked “D.”

Assay [1] deals with RPE-Neo or RPE-MYC or RPE-MYC expressing an EGFP-Histone 2B fusion protein. Put plainly: Phenotypic screening assay: arrest in mitosis, change in DNA content (polyploidy), cell death. Type of assay: cell-based. To be noted: 20 nM to 20 μM, 24, 48 or 72 hours. The method, then:
as §1
Screening was conducted as described before (Li et al. 2019). Briefly, RPE-Neo or RPE-MYC or RPE-MYC expressing an EGFP-Histone 2B fusion protein were passaged as batches of 96-well plates, 18-24 hours before exposure to the chemical compounds of the present disclosure at concentrations from 20 nM to 20 μM. At 24, 48 or 72 hours after initiation of treatment, cells were analyzed for either an arrest in mitosis or a change in DNA content by GE IN-Cell Analyzer 2000. MTT assays of cellular proliferation were performed as previously described (Li et al. 2019).
as §2

The mark [2] stands for this setting: read-out: Min. Effective conc. for Along with Cell Death.
Where [3] appears, read: ≥5%, read-out: Min. Effective conc. for Mitotic Arrest (≥5%).
[4] abbreviates: ≥5%, read-out: Min. Effective conc. for Polyploidy (≥5%).

As to `COc1ccc(CN2C(=O)CC(c3nnc(C)o3)=Cc3ccc(Br)cc32)cc1` [Compound 15, 8-bromo-1-(4-methoxybenzyl)-4-(5-methyl-1,3,4-oxadiazol-2-yl)-1,3-dihydro-2H-benzo[b]azepin-2-one], the minimal effective concentration (in the assay on RPE-Neo or RPE-MYC cells; in assay [1] (setting [2]); in assay [1] (setting [3]); in assay [1] (setting [4])) was 1 to 10 µM each time.
Turning to `CCc1ccc(CN2C(=O)CC(c3nnc(C4CC4)o3)=C(Br)c3ccccc32)cc1` [Compound 6, 5-Bromo-4-(5-cyclopropyl-1,3,4-oxadiazol-2-yl)-1-(4-ethylbenzyl)-1,3-dihydro-2H-benzo[b]azepin-2-one], the minimal effective concentration (in the assay on RPE-Neo or RPE-MYC cells; in assay [1] (setting [2]); in assay [1] (setting [3]); in assay [1] (setting [4])) was 0.001 to 1 µM in each case.
On to `Cc1cnc(C2=Cc3ccc(-c4cnn(C)c4)cc3N(Cc3ccc(C)c(F)c3)C(=O)C2)o1` [Compound 20, 1-(3-fluoro-4-methylbenzyl)-8-(1-methyl-1H-pyrazol-4-yl)-4-(5-methyloxazol-2-yl)-1,3-dihydro-2H-benzo[b]azepin-2-one], for which the minimal effective concentration (in the assay on RPE-Neo or RPE-MYC cells; in assay [1] (setting [2]); in assay [1] (setting [3]); in assay [1] (setting [4])) was 0.001 to 1 µM each time.
For `COc1ccc(CN2C(=O)CC(c3nc(C4CC4)no3)=Cc3ccc(-c4cnn(CC(C)(C)O)c4)cc32)cc1` [Compound 95, 4-(3-cyclopropyl-1,2,4-oxadiazol-5-yl)-8-(1-(2-hydroxy-2-methylpropyl)-1H-pyrazol-4-yl)-1-(4-methoxybenzyl)-1,3-dihydro-2H-benzo[b]azepin-2-one], the minimal effective concentration (with RPE-Neo or RPE-MYC cells; in assay [1] (setting [2]); in assay [1] (setting [3]); in assay [1] (setting [4])) was 0.001 to 1 µM in each case.
`COc1ccc(CN2C(=O)CC(c3ncc(C)o3)=Cc3ccc(-c4cnn(C5(CC#N)COC5)c4)cc32)cc1` [Compound 88, 2-(3-(4-(1-(4-Methoxybenzyl)-4-(5-methyloxazol-2-yl)-2-oxo-2,3-dihydro-1H-benzo[b]azepin-8-yl)-1H-pyrazol-1-yl)oxetan-3-yl)acetonitrile]: the minimal effective concentration (in the assay on RPE-Neo or RPE-MYC cells; in assay [1] (setting [2]); in assay [1] (setting [3]); in assay [1] (setting [4])) was 0.001 to 1 µM each time.
`Cc1cnc(C2=Cc3ccc(-c4cn[nH]c4)cc3N(Cc3ccc(C)c(F)c3)C(=O)C2)o1` [Compound 22, 1-(3-fluoro-4-methylbenzyl)-4-(5-methyloxazol-2-yl)-8-(1H-pyrazol-4-yl)-1,3-dihydro-2H-benzo[b]azepin-2-one]: the minimal effective concentration (in the assay on RPE-Neo or RPE-MYC cells; in assay [1] (setting [2]); in assay [1] (setting [3]); in assay [1] (setting [4])) was 0.001 to 1 µM in each case.
For the compound `[2H]C([2H])([2H])OCCCn1cc(-c2ccc3c(c2)N(Cc2ccc(OC)cc2)C(=O)CC(c2ncc(C)o2)=C3)cn1` [Compound 77, 8-(1-(3-(Methoxy-d3)propyl)-1H-pyrazol-4-yl)-1-(4-methoxybenzyl)-4-(5-methyloxazol-2-yl)-1,3-dihydro-2H-benzo[b]azepin-2-one], the minimal effective concentration (in the assay with RPE-Neo or RPE-MYC cells; in assay [1] (setting [2]); in assay [1] (setting [3]); in assay [1] (setting [4])) was 0.001 to 1 µM in each case.
Turning to `COc1ccc(CN2C(=O)CC(c3ncc(C)o3)=Cc3ccc(-c4cnc(N)nc4)cc32)cc1` [Compound 47, 8-(2-aminopyrimidin-5-yl)-1-(4-methoxybenzyl)-4-(5-methyloxazol-2-yl)-1,3-dihydro-2H-benzo[b]azepin-2-one], the minimal effective concentration (with RPE-Neo or RPE-MYC cells; in assay [1] (setting [2]); in assay [1] (setting [3]); in assay [1] (setting [4])) was 0.001 to 1 µM in each case.
Turning to `COc1ccc(CN2C(=O)CC(c3ncc(C)o3)=Cc3ccc(-c4ccn(C)n4)cc32)cc1` [Compound 31, 1-(4-methoxybenzyl)-8-(1-methyl-1H-pyrazol-3-yl)-4-(5-methyloxazol-2-yl)-1,3-dihydro-2H-benzo[b]azepin-2-one], the minimal effective concentration (in the assay with RPE-Neo or RPE-MYC cells; in assay [1] (setting [2]); in assay [1] (setting [3]); in assay [1] (setting [4])) was 0.001 to 1 µM in each case.
On to `COc1ccc(CN2C(=O)CC3(c4ncc(C)o4)CC3c3ccc(Br)cc32)cc1` (centres unmarked) [Compound 17, 6-bromo-4-(4-methoxybenzyl)-1a-(5-methyloxazol-2-yl)-1a,2,4,8b-tetrahydrobenzo[b]cyclopropa[d]azepin-3(1H)-one], for which the minimal effective concentration (with RPE-Neo or RPE-MYC cells; in assay [1] (setting [2]); in assay [1] (setting [3]); in assay [1] (setting [4])) was 1 to 10 µM in each case.
As for `COc1ccc(CN2C(=O)CC(c3nnc(N)s3)=C(Br)c3ccccc32)cc1` [Compound 10, 4-(5-Amino-1,3,4-thiadiazol-2-yl)-5-bromo-1-(4-methoxybenzyl)-1,3-dihydro-2H-benzo[b]azepin-2-one], the minimal effective concentration (in the assay on RPE-Neo or RPE-MYC cells; in assay [1] (setting [2]); in assay [1] (setting [3]); in assay [1] (setting [4])) was 0.001 to 1 µM throughout.
Take `COc1ccc(CN2C(=O)CC(c3ncc(C)o3)=Cc3ccc(-c4ccncc4)cc32)cc1` [Compound 40, 1-(4-methoxybenzyl)-4-(5-methyloxazol-2-yl)-8-(pyridin-4-yl)-1,3-dihydro-2H-benzo[b]azepin-2-one]: the minimal effective concentration (in the assay on RPE-Neo or RPE-MYC cells; in assay [1] (setting [2]); in assay [1] (setting [3]); in assay [1] (setting [4])) was 0.001 to 1 µM throughout.
Take `COc1ccc(CN2C(=O)CC(c3ncc(C)o3)=Cc3ccc(-c4cnn(C(C)(C)CO)c4)cc32)cc1` [Compound 56, 8-(1-(1-hydroxy-2-methylpropan-2-yl)-1H-pyrazol-4-yl)-1-(4-methoxybenzyl)-4-(5-methyloxazol-2-yl)-1,3-dihydro-2H-benzo[b]azepin-2-one]: the minimal effective concentration (in the assay with RPE-Neo or RPE-MYC cells; in assay [1] (setting [2]); in assay [1] (setting [3]); in assay [1] (setting [4])) was 0.001 to 1 µM each time.
Regarding `COc1ccc(CN2C(=O)CC(c3ncc(C)o3)=Cc3ccc(-c4cnn(C5CCOCC5)c4)cc32)cc1` [Compound 49, 1-(4-methoxybenzyl)-4-(5-methyloxazol-2-yl)-8-(1-(tetrahydro-2H-pyran-4-yl)-1H-pyrazol-4-yl)-1,3-dihydro-2H-benzo[b]azepin-2-one], the minimal effective concentration (in the assay with RPE-Neo or RPE-MYC cells; in assay [1] (setting [2]); in assay [1] (setting [3]); in assay [1] (setting [4])) was 0.001 to 1 µM throughout.
On to `COc1ccc(CN2C(=O)CC(c3ncc(C)o3)=Cc3ccc(-c4cnn(C(C)(C)C#N)c4)cc32)cc1` [Compound 86, 2-(4-(1-(4-Methoxybenzyl)-4-(5-methyloxazol-2-yl)-2-oxo-2,3-dihydro-1H-benzo[b]azepin-8-yl)-1H-pyrazol-1-yl)-2-methylpropanenitrile], for which the minimal effective concentration (in the assay with RPE-Neo or RPE-MYC cells; in assay [1] (setting [2]); in assay [1] (setting [3]); in assay [1] (setting [4])) was 0.001 to 1 µM each time.
For `COc1ccc(CN2C(=O)CC(c3nnc(C4CC4)o3)=C(Br)c3cccc(F)c32)cc1` [Compound 4, 5-bromo-4-(5-cyclopropyl-1,3,4-oxadiazol-2-yl)-9-fluoro-1-(4-methoxybenzyl)-1,3-dihydro-2H-benzo[b]azepin-2-one], the minimal effective concentration (with RPE-Neo or RPE-MYC cells; in assay [1] (setting [2]); in assay [1] (setting [3]); in assay [1] (setting [4])) was 0.001 to 1 µM throughout.
Take `COc1ccc(CN2C(=O)CC(c3nnco3)=Cc3ccc(Br)cc32)cc1` [Compound 14, 8-bromo-1-(4-methoxybenzyl)-4-(1,3,4-oxadiazol-2-yl)-1,3-dihydro-2H-benzo[b]azepin-2-one]: the minimal effective concentration (in the assay on RPE-Neo or RPE-MYC cells; in assay [1] (setting [2]); in assay [1] (setting [3]); in assay [1] (setting [4])) was 0.001 to 1 µM throughout.
